This is an account of results in ChEMBL document CHEMBL3244419.

Each structure is given as a SMILES string. Activity calls are given as the source filed them. The rule behind the calls is not given here.

The species named for assay [1] is Cavia porcellus. The note with it: Ileum, 10 nM.
Assay [2] concerns NG108-15. The note with it: 0.5 uM.
Description: Antagonist activity at opioid receptor in mouse/rat NG108-15 cells assessed as reversal of morphine-induced inhibition of adenylate cyclase activity at 0.5 uM
The species entered for assay [3] is Cavia porcellus. The assay can be described thus: Agonist activity at opioid receptor in electrically stimulated guinea pig ileum at >=50 uM. The assay is classed as tissue-based.
The subject of assay [4] is NG108-15. The assay is described as follows: Agonist activity at opioid receptor in mouse/rat NG108-15 cells assessed by adenylate cyclase assay. The assay is classed as cell-based.
For assay [5], the species on record is Cavia porcellus. The assay is described as follows: Agonist activity at opioid receptor in electrically stimulated guinea pig ileum at <50 uM. Format: tissue-based.

On to `C=CCN1CC[C@]23c4c5ccc(O)c4O[C@H]2C(=O)CC[C@@]3(O)[C@H]1C5`, for which the inhibition result in assay [1] and in assay [2] was “Active” in each case.

With `C=CCN1CC[C@@]23c4c5ccc(O)c4O[C@@H]2C(=O)CC[C@]3(O)[C@@H]1C5`, the result in assay [3], in assay [4] and in assay [5] was inactive.
